In ChEMBL document CHEMBL4825760, “Interleukin-17A Peptide Aptamers with an Unexpected Binding Moiety Selected by cDNA Display under Heterogenous Conditions” (ACS Med Chem Lett, 2021):
The source made the active and inactive calls. No cut-off for these calls is given here. *1 amine or outer side, *2 acyl side, *3 side chain or, on linkers, in order; H or OH if unused. Where a SMILES comes first, the peptide text is derived from it. Bridges are numbered along the chain shown (N, C = ends). oXylylene = c1ccc(C[*:2])c(C[*:1])c1

Experiments:
Interleukin-17A [1] = target: T1, Interleukin-17A (Homo sapiens, UniProt Q16552); experiment: Binding affinity to human IL-17A assessed as dissociation constant in PBS-T measured after 60 mins by Biolayer interferometry
T1 sequence (Q16552 whole entry): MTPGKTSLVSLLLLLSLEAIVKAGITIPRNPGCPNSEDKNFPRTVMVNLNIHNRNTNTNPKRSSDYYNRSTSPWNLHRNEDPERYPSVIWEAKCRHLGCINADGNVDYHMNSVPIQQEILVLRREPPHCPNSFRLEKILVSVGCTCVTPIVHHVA

[2] = Stability of the compound in 50% human serum assessed as compound decomposition incubated for 24 hrs by SDS-PAGE analysis
Interleukin-17A [3] = target: T1, Interleukin-17A; experiment: Binding affinity to biotinylated human IL-17A by SPR analysis
[4] = target: T2, Interleukin-17F (Homo sapiens) (UniProt Q96PD4); experiment: Binding affinity to human IL-17F
T2 sequence (whole entry): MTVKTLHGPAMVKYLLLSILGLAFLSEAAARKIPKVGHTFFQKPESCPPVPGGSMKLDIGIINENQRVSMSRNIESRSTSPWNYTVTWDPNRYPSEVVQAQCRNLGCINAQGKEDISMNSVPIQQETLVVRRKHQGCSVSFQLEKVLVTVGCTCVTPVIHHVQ

[5] = target: T3, Interleukin-17A (Mus musculus) (UniProt Q62386); experiment: Binding affinity to mouse IL-17A
T3 sequence (whole entry): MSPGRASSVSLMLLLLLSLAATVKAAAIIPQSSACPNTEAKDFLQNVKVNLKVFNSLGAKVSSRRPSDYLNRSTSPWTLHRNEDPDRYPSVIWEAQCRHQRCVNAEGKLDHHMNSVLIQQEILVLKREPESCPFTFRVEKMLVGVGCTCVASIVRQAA

Row | Kd (Interleukin-17A [1]) | metabolised at 24 h [2] | Structure (SMILES) | also measured
1 | Not Active | – | CC(C)C[C@H](NC(=O)[C@H](CCC(=O)O)NC(=O)[C@@H](N)CS)C(=O)N[C@@H](CC(C)C)C(=O)N[C@H](C(=O)N[C@@H](Cc1ccccc1)C(=O)N[C@@H](C)C(=O)NCC(=O)N[C@@H](Cc1ccc(O)cc1)C(=O)N1CCC[C@H]1C(=O)N[C@H](C(=O)N[C@@H](Cc1ccc(O)cc1)C(=O)N[C@@H](CS)C(=O)O)C(C)C)[C@@H](C)O (H-CELLTFAGYPVYC-OH) | –
2 | – | 30.5% | CC(C)C[C@@H]1NC(=O)[C@H](Cc2ccccc2)NC(=O)[C@H]([C@@H](C)O)NC(=O)[C@H](CC(C)C)NC(=O)[C@H](CC(C)C)NC(=O)[C@H](CCC(=O)O)NC(=O)[C@@H](N)CSCc2ccccc2CSC[C@@H](C(=O)O)NC(=O)[C@H](Cc2ccc(O)cc2)NC(=O)[C@H](C(C)C)NC(=O)[C@@H]2CCCN2C(=O)[C@H](Cc2ccc(O)cc2)NC(=O)CNC1=O (H-CELLTFLGYPVYC-OH; linker 1-13 via oXylylene) | –
3 | Not Active | – | CC(C)C[C@H](NC(=O)[C@H](C)NC(=O)[C@@H](NC(=O)[C@H](CC(C)C)NC(=O)[C@H](CC(C)C)NC(=O)[C@H](CCC(=O)O)NC(=O)[C@@H](N)CS)[C@@H](C)O)C(=O)NCC(=O)N[C@@H](Cc1ccc(O)cc1)C(=O)N1CCC[C@H]1C(=O)N[C@H](C(=O)N[C@@H](Cc1ccc(O)cc1)C(=O)N[C@@H](CS)C(=O)O)C(C)C (H-CELLTALGYPVYC-OH) | –
4 | – | – | CC(C)C[C@@H]1NC(=O)[C@H](Cc2ccccc2)NC(=O)[C@H]([C@@H](C)O)NC(=O)[C@H](CC(C)C)NC(=O)[C@H](CC(C)C)NC(=O)[C@H](CCC(=O)O)NC(=O)[C@@H](NC(=O)[C@H](CO)NC(=O)CN)CSSC[C@@H](C(=O)NCC(=O)NCC(=O)NCC(=O)N[C@@H](CO)C(=O)N[C@@H](Cc2cnc[nH]2)C(=O)N[C@@H](Cc2cnc[nH]2)C(=O)N[C@@H](Cc2cnc[nH]2)C(=O)N[C@@H](Cc2cnc[nH]2)C(=O)N[C@@H](Cc2cnc[nH]2)C(=O)N[C@@H](Cc2cnc[nH]2)C(=O)O)NC(=O)[C@H](Cc2ccc(O)cc2)NC(=O)[C@H](C(C)C)NC(=O)[C@@H]2CCCN2C(=O)[C@H](Cc2ccc(O)cc2)NC(=O)CNC1=O (H-GSCELLTFLGYPVYCGGGSHHHHHH-OH; disulfide 3-15) | Kd (Interleukin-17A [3]): Not Active
5 | – | 9.5% | CC(C)C[C@H](NC(=O)[C@H](Cc1ccccc1)NC(=O)[C@@H](NC(=O)[C@H](CC(C)C)NC(=O)[C@H](CC(C)C)NC(=O)[C@H](CCC(=O)O)NC(=O)[C@@H](N)CS)[C@@H](C)O)C(=O)NCC(=O)N[C@@H](Cc1ccc(O)cc1)C(=O)N1CCC[C@H]1C(=O)N[C@H](C(=O)N[C@@H](Cc1ccc(O)cc1)C(=O)N[C@@H](CS)C(=O)O)C(C)C (H-CELLTFLGYPVYC-OH) | Activity [4]: inactive; Activity [5]: Active
